Data on 1 compound can be found in article PMC11933534, “Favipiravir induces HuNoV viral mutagenesis and infectivity loss with clinical improvement in immunocompromised patients” (Clinical Immunology (Orlando, Fla.), 2024).

Assay type in all cases: in vivo
In one series the test system is HuNoV GII.4 Sydney[P16]. The series is described as follows: Antiviral treatment of HuNoV-infected zebrafish larvae (viral RNA by RT-qPCR). The procedure:
(§1) First, compounds were dissolved in 100% DMSO (spectroscopy grade). To determine the correct dose for pericardial injections in zebrafish larvae of all compounds (i.e. favipiravir, tizoxanide and their 1:1 combination), a weight-dependent conversion was applied. For this purpose, the optimized and increased clinical dose of 400 mg favipiravir TDS and 200 mg tizoxanide BD was used. To ensure the weight-converted dose was not toxic for zebrafish larvae of 3 days post fertilization, a toxicity analysis was performed. […] The following parameters were investigated: touch response, morphology, posture, oedema, signs of necrosis, swim bladder and heartbeat.
Zebrafish larvae were anesthetized and positioned as described previously, in short: zebrafish larvae of 3 days post fertilization were anesthetized and transferred to an agarose mold to position them on their dorsal side with the yolk facing upward. In every experiment, the injection needle was calibrated to ensure the precision of the injection volume. Microinjection was performed using an M3301R Manual Micromanipulator (WPI, Friedberg, Germany) and a FemtoJet 4i pressure microinjector (Eppendorf, Hamburg, Germany). Compound-treated zebrafish larvae received a 1 nL (1.5 nL in case of the combination treatment) injection of compound in the pericardial cavity, while negative control zebrafish were injected with an equal volume of DMSO. Subsequently, the zebrafish larvae received an injection of 3 nL virus in the yolk. After both injections, zebrafish larvae were transferred to 6-well plates with Danieau's solution and further maintained in an incubator with a 14/10 h light/dark cycle at 32 °C.
Zebrafish larvae were homogenized (Precellys 24, Bertin Technologies, Montigny-le-Bretonneux, France), the homogenates were cleared by centrifugation (5 min, 9000 g), and RNA was extracted using the Direct-zol RNA kit (Zymo Research, Irvine, CA, USA), according to the manufacturer's protocol. RNA levels were quantified with a one-step RT-qPCR (iTaq Universal Probes One-Step Kit, Bio-Rad, Hercules, CA, USA) as previously described.
A general note: Real-time PCR tracks product formation cycle by cycle.

In the next series the test system is IRF-1. The series is described as follows: Innate immune gene expression in HuNoV-infected zebrafish larvae: IRF-1. The conditions noted are these: tizoxanide 4 ng; HuNoV GII.4 Sydney[P16]; day 2 pi; p = 0.023. The protocol:
(§2) To generate the cDNA, the ImProm-II Reverse Transcription System (Promega, Madison, WI, USA) was used. Briefly, a total of 1 μg (ca. 8 μL) of extracted RNA was added to 2 μL of random hexamers and incubated at 70 °C for 5 min, followed by 5 min at 4 °C. To this reaction mix a total volume of 30 μL containing 8 μL of Improm II 5× reaction buffer, 6 mM MgCl2, 0.5 mM deoxynucleoside triphosphate, 40 units of RNase inhibitor, 2 μL of Improm II reverse transcriptase, followed by an incubation at 25 °C for 5 min, 37 °C for 1 h, and 72 °C for 15 min. A qPCR was performed with 4 μL template cDNA using the SsoAdvanced Universal SYBR green supermix, 600 nM of forward and reverse primers for IRF-1, Mx and the housekeeping genes 18 s, β-actin, and ef1a. Primer sequences were as previously described [[65], [66], [67], [68]]. Cycling conditions were as follows; polymerase activation at 95 °C for 3 min followed by 40 cycles of denaturation at 95 °C for 15 s, annealing at 55 °C and extension at 72 °C for 30 s (Quantstudio 5, ThermoFisher Scientific, Waltham, MA, USA). Data was normalized to the housekeeping genes and compared to DMSO-injected zebrafish larvae infected with HuNoV to determine the fold induction of the expression, according to the Livak method.

Another series concerns zebrafish larvae. Description: Toxicity analysis in zebrafish larvae. The protocol: as §1
A further series concerns Mx. The series is described as follows: Innate immune gene expression in HuNoV-infected zebrafish larvae: Mx. The conditions noted are these: tizoxanide 4 ng; HuNoV GII.4 Sydney[P16]; day 2 pi; p = 0.0403. The protocol: as §2

Take `O=C(Nc1ncc([N+](=O)[O-])s1)c1ccccc1O` [tizoxanide]: the “Reduction of HuNoV replication” value in the series with HuNoV GII.4 Sydney[P16] (monotherapy favipiravir 25 ng or tizoxanide 4 ng, in-house GII.4 Sydney[P16] stool sample, peak 2 dpi, p = 0.0006 and 0.001) is recorded as more than 1 log10. In the series with HuNoV GII.4 Sydney[P16] (tizoxanide 4 ng alone, inoculum SS A, p > 0.05), the “Effect on HuNoV replication” value is “no significant effect”. In addition, in the series with IRF-1, the “Fold increase in IRF-1 expression vs untreated (DMSO) infected larvae” value was 4 fold. For the same compound, the “Toxicity in the zebrafish larval model” value in the series on zebrafish larvae (25 ng favipiravir or 4 ng tizoxanide, drug administered alone) was “did not show toxicity”; in the series with zebrafish larvae (tizoxanide 6 ng), “signs of toxicity, including heart oedema, necrosis and spine curvature”. For the same compound, the “Fold increase in Mx expression vs untreated (DMSO) infected larvae” value in the series on Mx was 9 fold.
